Data from publication PMC8247900 (Clinical Pharmacology and Therapeutics, 2021).

Legend:
CYP2C19 mRNA = assay: Induction of CYP mRNA expression in HepaRG cells; assay type: cell-based, human; conditions: 72 hours, 300 µM 4‐MAA, 10 µM rifampicin; for CYP2C19 mRNA induction in 5‐F cells: 5‐F control HepaRG cells, 1 µM CITCO
CYP2B6 mRNA = assay: Induction of CYP mRNA expression in HepaRG cells; assay type: cell-based, human; conditions: 72 hours, 300 µM 4‐MAA, 10 µM rifampicin; for CYP2B6 mRNA induction in 5‐F cells: 5‐F control HepaRG cells, 1 µM CITCO
CYP1A2 [1] = assay type: in vivo, human; conditions: male, human, plasma, oral
[2] = assay type: in vivo, human
CYP2C9 mRNA = assay: Induction of CYP mRNA expression in HepaRG cells; assay type: cell-based, human; conditions: 5‐F control HepaRG cells, 72 hours; 300 µM 4‐MAA, 1 µM CITCO, 10 µM rifampicin
CYP1A2 mRNA = assay: Induction of CYP mRNA expression in HepaRG cells; assay type: cell-based, human; conditions: 72 hours
CYP2D6 mRNA = assay: Induction of CYP mRNA expression in HepaRG cells; assay type: cell-based, human; conditions: differentiated HepaRG cells, 72 hours; 300 µM 4‐MAA; 2 mM metformin
[3] = retrospective study, patients treated with metamizole; cited from earlier work
CYP2C9 = assay: Clinical phenotyping cocktail study: effect of metamizole on CYP2C9; assay type: in vivo, human; conditions: 3 g of metamizole per day for 1 week
CYP3A4 = assay: Clinical phenotyping cocktail study: effect of metamizole on CYP3A4; assay type: in vivo, human; conditions: 3 g of metamizole per day for 1 week
CYP1A2 [4] = biological target: T1, CYP1A2 (Homo sapiens, UniProt P05177); assay: Clinical phenotyping cocktail study: effect of metamizole on CYP1A2; assay type: in vivo
T1 sequence (P05177 1-516): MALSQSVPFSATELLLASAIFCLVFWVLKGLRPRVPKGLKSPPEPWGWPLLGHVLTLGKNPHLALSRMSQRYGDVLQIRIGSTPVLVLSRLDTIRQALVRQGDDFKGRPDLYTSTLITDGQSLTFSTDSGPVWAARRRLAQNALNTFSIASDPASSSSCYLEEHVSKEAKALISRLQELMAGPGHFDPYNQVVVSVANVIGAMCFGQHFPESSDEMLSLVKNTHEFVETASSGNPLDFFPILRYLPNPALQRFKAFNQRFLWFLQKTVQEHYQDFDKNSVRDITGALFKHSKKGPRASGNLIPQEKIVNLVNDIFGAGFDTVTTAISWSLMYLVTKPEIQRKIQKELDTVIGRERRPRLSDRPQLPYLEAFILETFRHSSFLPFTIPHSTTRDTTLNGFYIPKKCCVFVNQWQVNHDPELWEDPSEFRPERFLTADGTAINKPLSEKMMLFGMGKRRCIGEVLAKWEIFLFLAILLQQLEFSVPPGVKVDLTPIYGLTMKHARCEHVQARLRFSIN

CYP2C19 = assay: Clinical phenotyping cocktail study: effect of metamizole on CYP2C19; assay type: in vivo, human; conditions: 3 g of metamizole per day for 1 week
[5] = patients after organ transplantation; cited from earlier work
CYP2D6 = assay: Clinical phenotyping cocktail study: effect of metamizole on CYP2D6; assay type: in vivo, human
CYP2B6 [6] = conditions: healthy volunteers, 1.5 g metamizole per day for 4 days; cited from earlier work
CYP2B6 [7] = assay: Clinical phenotyping cocktail study: effect of metamizole on CYP2B6; assay type: in vivo, human; conditions: 3 g of metamizole per day for 1 week
[8] = differentiated HepaRG cells, vs DMSO control
[9] = clinical study, 3 g of metamizole per day for 1 week

CO[C@H]1/C=C/O[C@@]2(C)Oc3c(C)c(O)c4c(O)c(c(/C=N/N5CCN(C)CC5)c(O)c4c3C2=O)NC(=O)/C(C)=C\C=C\[C@H](C)[C@H](O)[C@@H](C)[C@@H](O)[C@@H](C)[C@H](OC(C)=O)[C@@H]1C [rifampicin]
CYP2C19 mRNA induction in 5‐F cells (CYP2C19 mRNA): increased
increase of CYP2C19 mRNA content (CYP2C19 mRNA; [8]): 2.2 fold
CYP2B6 mRNA induction in 5‐F cells (CYP2B6 mRNA): not significant
increase of CYP2B6 mRNA content (CYP2B6 mRNA; [8]): 4.3 fold

Cn1c(=O)[nH]c2ncn(C)c2c1=O [Paraxanthine, paraxanthine]
AUC(0-inf) (CYP1A2 [1]): 4620 ng·h/mL
AUC(0-inf) ([2]; male, human, plasma, oral): 4680 ng·h/mL

Clc1ccc(-c2nc3sccn3c2C=NOCc2ccc(Cl)c(Cl)c2)cc1 [CITCO, 6‐(4‐chlorophenyl)imidazo[2,1‐b][1,3]thiazole‐5‐carbaldehyde O‐(3,4‐dichlorobenzyl)oxime]
CYP3A4 mRNA induction in 5‐F cells (CYP3A4 mRNA): not significant
CYP2C19 mRNA induction in 5‐F cells (CYP2C19 mRNA): induced
CYP2C9 mRNA induction in 5‐F cells (CYP2C9 mRNA): not significant
CYP1A2 mRNA induction in 5‐F cells (CYP1A2 mRNA; 5‐F control HepaRG cells, 1 µM CITCO): induced
CYP1A2 mRNA induction in HepaRG cells lacking CAR (CYP1A2 mRNA; CAR‐knockout HepaRG cells, 1 µM CITCO): still induced
CYP2B6 mRNA induction in 5‐F cells (CYP2B6 mRNA): induced

CN(C)C(=N)N=C(N)N [metformin]
effect on CYP1A2 mRNA (CYP1A2 mRNA; differentiated HepaRG cells, 300 µM 4‐MAA, 2 mM metformin): suppressed
effect on CYP2D6 mRNA (CYP2D6 mRNA): not significantly affected

CC(C(=O)O)c1ccc(-c2ccc(O)cc2)c(F)c1 (centres unmarked) [4′‐hydroxyflurbiprofen]
AUC(0-inf) ([2]; male, human, plasma, oral): 726 ng·h/mL

Cn1c(=O)c2c(ncn2C)n(C)c1=O [Caffeine, caffeine]
AUC(0-inf) ([2]; male, human, plasma, oral): 7210 ng·h/mL

Cc1ncc2n1-c1ccc(Cl)cc1C(c1ccccc1F)=NC2 [Midazolam, midazolam]
AUC(0-inf) ([2]; male, human, plasma, oral): 19.7 ng·h/mL
half-life ([2]; male, human, plasma, oral): 2.44 h

CC(C(=O)O)c1ccc(-c2ccccc2)c(F)c1 (centres unmarked) [Flurbiprofen, flurbiprofen]
AUC(0-inf) ([2]; male, human, plasma, oral): 10000 ng·h/mL

COc1ccc2[nH]c([S+]([O-])Cc3ncc(C)c(OC)c3C)nc2c1 (centres unmarked) [Omeprazole, omeprazole]
AUC(0-inf) ([2]; male, human, plasma, oral): 187 ng·h/mL

COCCc1ccc(OCC(O)CNC(C)C)cc1 (centres unmarked) [Metoprolol, metoprolol]
AUC(0-inf) ([2]; male, human, plasma, oral): 41.4 ng·h/mL

O=C1Nc2ccc(Cl)cc2[C@@](C#CC2CC2)(C(F)(F)F)O1 [Efavirenz, efavirenz]
Basal metabolic ratio in CYP2B6 NM ([2]; basal state, CYP2B6 *1/*1 carriers (normal metabolizers, four subjects)): 96.3
Basal metabolic ratio in CYP2B6 IM ([2]; basal state, CYP2B6 *1/*6 carriers (intermediate metabolizers, eight subjects)): 87.5
AUC(0-inf) ([2]; male, human, plasma, oral): 3980 ng·h/mL

Cc1c(N(C)CS(=O)(=O)O)c(=O)n(-c2ccccc2)n1C [metamizole, Metamizole]
lower sertraline plasma concentrations than patients without metamizole [3]: 67%
effect on CYP2C9 activity (CYP2C9): weakly induced
effect on CYP3A4 activity (CYP3A4): moderate induction
effect on CYP1A2 activity (CYP1A2 [4]; [9]): weakly inhibited
change in caffeine:paraxanthine MR (CYP1A2 [4]; metamizole 3 × 1 g per day for 7 days, P = 0.0024): significant increase
effect on CYP2C19 activity (CYP2C19): moderately
effect on cyclosporine blood concentrations [5]: decreased
effect on CYP2D6 activity (CYP2D6; [9]): did not alter
change in the MR of metoprolol (CYP2D6; metamizole 3 × 1 g per day for 7 days): no significant change
increase in the bupropion hydroxylase activity (CYP2B6 [6]): 2.1 fold
effect on CYP2B6 activity (CYP2B6 [7]): moderate induction
